Measurements: patent publication US10646553B2, “Use of recombinant human calcineurin B subunit” (HAIKOU QILI PHARMACEUTICAL CO., LTD., priority 2015, dated 2020)

Columns and labels:
[1] = Survival of tumour-bearing animals during the experiment; type: in vivo, BALB/c nude mice
Excerpt: (§1) In one embodiment of the present invention, according to the “Technical Guidelines for Non-Clinical Studies of Cytotoxic Antitumor Drugs” and “Guidelines for Pharmacodynamics of Antitumor Drugs”, IVIS Kinetics (a small animal live imaging system) was used to dynamically analyze the therapeutic effect of rhCNB for injection on the BALB/c nude mice bearing the human gastric cancer cell MGC-803 carcinoma in situ. Firstly, a BALB/c nude mouse model bearing subcutaneous transplantation tumor of human gastric cancer cell MGC-803 was established, and then a BALB/c nude mouse model bearing transplantation tumor in situ of human gastric cancer cell MGC-803 was established. […] Each experimental group is administered once daily for 15 consecutive days, except that the positive control high-dose administration group of cisplatin for injection is administered for 5 days. […] Animals were examined once using Caliper IVIS Kinetics (small animal live imaging system) before the first administration (on the administration day), every other 3 days after the first administration and on the 7th day after the last administration, respectively, and body weight was measured before each examination. At the end of the last examination, animals were sacrificed and roughly necropsied, and organs inoculated with tumor (including tumor tissues) were removed for pathological examination and immunohistochemical assay of apoptosis.
The high-, medium-, low-dose groups and progressively increasing-dose group of the test sample were administered once daily for 15 consecutive days;

[2] = test system: transplantation tumor of human gastric cancer cell MGC-803 carcinoma in situ; test: Bioluminescence detection (IVIS small animal live imaging) and necropsy of orthotopic MGC-803 tumour in nude mice; type: in vivo, BALB/c nude mice
Excerpt: as §1
Human gastric cancer cell MGC-803 was routinely cultured in vitro, digested, centrifuged, and then prepared into a cell suspension with a concentration of approximately 1×10^7 cells/mL. The cells were inoculated subcutaneously into the right armpit of mice at an amount of 0.2 mL/mouse.
Well-grown subcutaneously transplanted tumors were removed and cut into tumor tissue blocks with a size of approximately 2×2×1 mm for use. Animals to be inoculated were feed 12 hours before surgical operation and subjected to gas anesthesia with isoflurane. The anaesthetized animals were placed in supine position. The skin 2˜5 mm below the xiphoid process was cut horizontally layer-by-layer on the left side to give an opening of about 1 cm. Stomach was pull out gently using a pincette and exposed. The tumor tissue block was placed above the side near the pylorus of greater curvature of stomach of the nude mice with surgical suture #1 by “purse-string suture”, so that the tumor tissue block was wrapped therein. The skin was sutured layer by layer and disinfected by Entoiodine, and then the animals were returned back to the cage for normal feeding. 7 days after surgery, the animals were examined using the small animal live imaging system, grouped, and administrated.
The route for administration was by tail vein injection.
Animals were detected once using Caliper IVIS Kinetics small animal live imaging system at the following time point: before the first administration (on the administration day), every other 3 days after the first administration, and on the 7th day after the last administration, respectively. The body weight was measured before each detection. A substrate solution (with a concentration of 15 mg/mL) was injected intraperitoneally according to 0.1 mL/10 g body weight and a bioluminescence detection was performed 10˜15 min after injection.
The data obtained from the experiments were statistically analyzed using SPSS analysis software, and the significance of difference between the administration groups and the vehicle control group, and among each administration group was compared.

[3] = SD, low-dose 1 mg/kg once daily 15 d, d3
[4] = SD, low-dose 1 mg/kg once daily 15 d, d6
[5] = SD, low-dose 1 mg/kg once daily 15 d, d9
[6] = SD, low-dose 1 mg/kg once daily 15 d, d12
[7] = SD, low-dose 1 mg/kg once daily 15 d, d15
[8] = SG, high-dose 5 mg/kg once daily 5 d, d3
[9] = SG, high-dose 5 mg/kg once daily 5 d, d6
[10] = X, 2 mg/kg once daily 15 d, d12
[11] = X, 2 mg/kg once daily 15 d, d15

N.N.[Cl][Pt][Cl] [cisplatin for injection, cisplatin]
(4): number of surviving animals ([1]; SD, low-dose 1 mg/kg once daily 15 d, d21 (7th day after last administration))
0: Number of animals in which tumor is not detectable and not observed ([2]; SD, low-dose 1 mg/kg once daily 15 d, d0) | Number of animals in which tumor is not detectable and not observed [2, 3] | Number of animals in which tumor is not detectable and not observed [2, 4] | Number of animals in which tumor is not detectable and not observed [2, 5] | Number of animals in which tumor is not detectable and not observed [2, 6] | Number of animals in which tumor is not detectable and not observed [2, 7] | Number of animals in which tumor is not detectable and not observed ([2]; SD, low-dose 1 mg/kg once daily 15 d, recovery period d7) | Number of animals in which tumor is not detectable and not observed ([2]; SG, high-dose 5 mg/kg once daily 5 d, d0) | Number of animals in which tumor is not detectable and not observed [2, 8] | Number of animals in which tumor is not detectable and not observed [2, 9] | Number of animals in which tumor is not detectable and not observed ([2]; SG, high-dose 5 mg/kg once daily 5 d, d9) | Number of animals in which tumor is not detectable and not observed ([2]; SG, high-dose 5 mg/kg once daily 5 d, d12) | Number of animals in which tumor is not detectable and not observed ([2]; SG, high-dose 5 mg/kg once daily 5 d, d15) | Number of animals in which tumor is not detectable and not observed ([2]; SG, high-dose 5 mg/kg once daily 5 d, recovery period d7)
(9): number of surviving animals [1, 7]
mainly due to drug toxicity: cause of death of the animals ([1]; during the experiment, preliminarily believed)
sharp increase: bioluminescence detection data ([2]; positive control high-dose group 5 mg/kg, after the 6th day administration)
(10): number of surviving animals ([1]; SD, low-dose 1 mg/kg once daily 15 d, d0 before administration) | number of surviving animals [1, 3] | number of surviving animals [1, 4] | number of surviving animals [1, 5] | number of surviving animals [1, 6] | number of surviving animals ([1]; SG, high-dose 5 mg/kg once daily 5 d, d0 before administration) | number of surviving animals [1, 8] | number of surviving animals [1, 9]

CC[C@@]1(O)C(=O)OCc2c1cc1n(c2=O)Cc2cc3cc(O)ccc3nc2-1 [hydroxycamptothecin for injection, hydroxycamptothecin]
(9): number of surviving animals ([1]; X, 2 mg/kg once daily 15 d, d6) | number of surviving animals ([1]; X, 2 mg/kg once daily 15 d, d9) | number of surviving animals [1, 10] | number of surviving animals [1, 11]
0: Number of animals in which tumor is not detectable and not observed ([2]; X, 2 mg/kg once daily 15 d, d0) | Number of animals in which tumor is not detectable and not observed ([2]; X, 2 mg/kg once daily 15 d, d3) | Number of animals in which tumor is not detectable and not observed ([2]; X, 2 mg/kg once daily 15 d, d6) | Number of animals in which tumor is not detectable and not observed ([2]; X, 2 mg/kg once daily 15 d, d9) | Number of animals in which tumor is not detectable and not observed [2, 10] | Number of animals in which tumor is not detectable and not observed [2, 11] | Number of animals in which tumor is not detectable and not observed ([2]; X, 2 mg/kg once daily 15 d, recovery period d7)
(7): number of surviving animals ([1]; X, 2 mg/kg once daily 15 d, d21 (7th day after last administration))
(10): number of surviving animals ([1]; X, 2 mg/kg once daily 15 d, d0 before administration) | number of surviving animals ([1]; X, 2 mg/kg once daily 15 d, d3)
